Experimental data: article PMC10743905, “Design, Synthesis, and In Vitro and In Vivo Bioactivity Studies of Hydrazide–Hydrazones of 2,4-Dihydroxybenzoic Acid” (International Journal of Molecular Sciences, 2023)
Converted amounts (≈) assume the structure as drawn. “And” between values parts separate entries of the source, which are not always exact repeats. Equal entries are not always repeated. Where two headings read alike, the source gives them in different places.

Legend:
[1] = in vivo; conditions: in vivo
Description: Wild-type AB strain zebrafish (Danio rerio) were housed in the Experimental Medicine Centre of Medical University of Lublin (Lublin, Poland), where all the experimental procedures on embryos and larvae were carried out. The animals were kept on a recirculating water supply at 26 ± 1 °C and a 10/14 dark–light cycle, and they were fed with artemia and commercial feed. Danio rerio embryos were obtained from females between 4 and 15 months of age. […] In order to avoid genetic bias in the study, eggs were randomly collected from at least three breeding groups, rinsed, and placed in Petri dishes in the cultured medium, which for Danio rerio is E3 solution. […] In accordance with the legislation of the European Union and Poland, the experiments performed on the earliest life-stages of Danio rerio until 120 h post-fertilization (120 hpf), not defined as protected, are not subject to regulations for animal experimentation.
They address the testing of chemicals using the Fish Embryo Acute Toxicity (FET) test with the species Danio rerio.
Immediately after fertilization, eggs were placed in sterile 24-well plates and exposed for 96 h to at least five concentrations of the test chemical, ranging from 1 to 500 µM and prepared ex tempore on each day of exposure, according to the principle of one egg per well and one concentration per plate. In each plate, 20 wells were filled with the solutions of the tested substance, and 4 wells of the last column were a negative internal control with E3 medium. Each well was filled with 2 mL of solution. Positive control plates were also prepared according to this scheme with 4 mg/L of 3,4-dichloroaniline (Sigma-Aldrich, Poznań, Poland) and a negative control with E3, and a negative solvent control with 1% DMSO, which was used as a solvent for the tested substances. At four time points, microscopic observations were made every 24 h. As indicators of mortality (so-called terminal observations; when at least one of these occurs, embryonic death is declared), the following were recorded: the coagulation of embryos, a lack of somite formation, a lack of detachment of the tail from the yolk sac and a lack of a heartbeat, which was observed from the 48th hour of the study. To confirm the absence of a heartbeat, a microscopic observation was conducted at 80× magnification for one minute. Then, the solutions of the tested chemicals, to maintain their constant composition throughout the test, were replaced with fresh ones, and the plates were incubated for another 24 h in an incubator at 26 ± 1 °C. […] In addition, a quantitative and qualitative summary of the morphological and physiological abnormalities that occurred in the tested Danio rerio embryos and larvae was also made. These included yolk sac edema, pericardial edema, spinal flexure, head deformities, tail deformities, developmental delay defined as a lack of hatching success for 96 hpf larvae, and also bradycardia.
Regression analysis was performed with Excel, and the above-mentioned values were obtained from the linear type of regression analysis. […] The results obtained from the heart rate study of 96 hpf zebrafish larvae were subjected to statistical analysis using one-way analysis of variance (ANOVA) and a post hoc Bonferroni test. The significance level was taken as p < 0.05.

[2] = system: reference Gram-positive bacteria; assay: Broth microdilution, summary over the Gram-positive panel; assay type: cell-based
Description: (§1) In vitro antimicrobial activity assays - Methodology
(§2) The examined compounds 1 - 24 were screened in vitro for antibacterial and antifungal activities using the broth microdilution method according to procedure reported earlier by our research group and European Committee on Antimicrobial Susceptibility Testing (EUCAST) and Clinical and Laboratory Standards Institute (CLSI) guidelines against a panel of reference and clinical or saprophytic strains of microorganisms, in-cluding Gram-positive bacteria, Staphylococcus aureus ATCC 43300 (Methicillin Resistant S. aureus – MRSA), Staphylococcus aureus ATCC 29213 (Methicillin Susceptible S. aureus – MSSA), Staphylococcus epidermidis ATCC 12228, Enterococcus faecalis ATCC 29212, Micro-coccus luteus ATCC 10240, Bacillus subtilis ATCC 6633 and Bacillus cereus ATCC 10876), Gram-negative bacteria (Bordetella bronchiseptica ATCC 4617, Escherichia coli ATCC 25922, Klebsiella pneumoniae ATCC 13883, Proteus mirabilis ATCC 12453, Salmonella typhimurium ATCC 14028 and Pseudomonas aeruginosa ATCC 9027) and fungi belonging to yeasts (Can-dida albicans ATCC 10231, Candida albicans ATCC 2091, Candida parapsilosis ATCC 22019, Candida glabrata ATCC 90030 and Candida krusei ATCC 14243). The microorganisms be-longing to ATCC came from American Type Culture Collection, routinely used for the evaluation of antimicrobials. […]
Samples containing examined compounds were dissolved in dimethyl sulfoxide (DMSO). […]
(§3) Subsequently, the MIC (Minimal Inhibitory Concentration) of the compounds was ex-amined by the microdilution broth method, using their two-fold dilutions in Mueller- […]
(§4) Hinton broth or (for bacteria) and RPMI 1640 broth with MOPS (for fungi) prepared in 96-well polystyrene plates. Final concentrations of the compounds ranged from 1000 to 0.488 µg/ml. Microbial suspensions were prepared in 0.85% NaCl with an optical density of 0.5 McFarland standard. Next each bacterial or fungal suspension was added per each well containing broth and various concentrations of the examined compounds. After incuba-

[3] = system: Gram-negative bacteria; assay: Broth microdilution, summary over the Gram-negative panel; assay type: cell-based
Description: as §1
as §2, with “antimicrobials. All the used microbial cultures were first subcultured on nu-trient agar or Sabouraud agar at 35°C for 18-24 h or 30°C for 24-48 h for bacteria and fungi,” for “antimicrobials.”
The surface of Mueller-Hinton agar (for bacteria) and RPMI 1640 with MOPS (for fungi) were inoculated with the suspensions of bacterial or fungal species. Microbial suspensions were prepared in sterile saline with an optical density of McFarland standard scale 0.5.
Samples containing examined compounds were dissolved in dimethyl sulfoxide (DMSO).
Furthermore, bacterial and fungal suspensions were put onto Petri dishes with solid me-dia containing 2 mg/mL of the tested compounds followed incubation at 37°C for 24h and 30°C for 48h for bacteria and fungi, respectively. The inhibition of microbial growth was judged by comparison with a control culture prepared without any sample tested. Ciprof-loxacin, vancomycin, nitrofurantoin, cefuroxime, ampicillin or nystatin (Sigma) were used as a reference antibacterial or antifungal compounds, respectively.
as §3, §4

In the case of `O=C(N/N=C/c1ccccc1F)c1ccc(O)cc1O` [Compound 24, N-[(2-fluorophenyl)methylidene]-2,4-dihydroxybenzohydrazide], the LC50 at 96 h [1] is reported as 4.24 mM and 1160 µg/mL.
In the case of `O=C(N/N=C/c1ccc([N+](=O)[O-])cc1)c1ccc(O)cc1O` [Compound 21, 2,4-dihydroxy-N-[(4-nitrophenyl)methylidene]benzohydrazide], the LC50 at 96 h [1] is reported as 370 µM and 110 µg/mL and the MIC [2] is reported as 500 to 1000 µg/mL (≈ 1660 to 3320 µM).
`O=C(N/N=C/c1ccccc1[N+](=O)[O-])c1ccc(O)cc1O` [Compound 19, 2,4-dihydroxy-N-[(2-nitrophenyl)methylidene]benzohydrazide] gave an MIC [3] of 500 to 1000 µg/mL (≈ 1660 to 3320 µM) and an MIC [2] of 250 to 1000 µg/mL (≈ 830 to 3320 µM).
With `O=C(N/N=C/c1ccccc1Cl)c1ccc(O)cc1O` [Compound 22, N-[(2-chlorophenyl)methylidene]-2,4-dihydroxybenzohydrazide] the LC50 at 96 h [1] was 56.6 µM and 16.4 µg/mL.
In the case of `O=C(N/N=C/c1cccc([N+](=O)[O-])c1)c1ccc(O)cc1O` [Compound 20, 2,4-dihydroxy-N-[(3-nitrophenyl)methylidene]benzohydrazide], the LC50 at 96 h [1] is reported as 34.8 mM and 10500 µg/mL.
In the case of `O=C(N/N=C/c1ccccc1Br)c1ccc(O)cc1O` [Compound 23, N-[(2-bromophenyl)methylidene]-2,4-dihydroxybenzohydrazide], the LC50 at 96 h [1] is reported as 85.6 µM and 30.4 µg/mL.
For `CCCc1ccc(/C=N/NC(=O)c2ccc(O)cc2O)cc1` [Compound 13, 2,4-dihydroxy-N-[(4-propylphenyl)methylidene]benzohydrazide], the MBC [3] was > 1000 µg/mL, the MIC [3] was 500 to 1000 µg/mL (≈ 1680 to 3350 µM) and the melting point was 197 °C. For the same compound, the MBC [2] was > 1000 µg/mL and the MIC ([2]; read-out: MIC) was 1000 µg/mL (≈ 3350 µM).
With `O=C(N/N=C/c1cc(I)cc(I)c1O)c1ccc(O)cc1O` [Compound 18, 2,4-dihydroxy-N-[(2-hydroxy-3,5-diiodophenyl)methylidene]benzohydrazide] the MBC [3] was > 1000 µg/mL, the MIC [3] was 500 to 1000 µg/mL (≈ 954 to 1910 µM) and the melting point was 220 °C. For the same compound, the MBC [2] was 1.95 to 31.2 µg/mL (≈ 3.72 to 59.6 µM) and the MIC ([2]; read-out: MIC) was 0.48 to 7.81 µg/mL (≈ 0.916 to 14.9 µM).
